Laboratory results: patent US20140243418A1, “RASAGILINE FOR PARKINSON'S DISEASE MODIFICATION” (Teva Pharmaceutical Industries, Ltd., priority 2008, published 2014)
Where “and” joins values, the source holds several entries; their conditions need not be identical. Equal values may be shown once. Read-outs that look alike come from different tables or passages of the source.

Tested on: Early Stage PD patients
Settings: for 1 mg Early-Delayed Start Slope Difference, Estimate / 2 mg Early-Delayed Start Slope Difference, Estimate / 1 mg-Placebo Slope Difference, Estimate / 2 mg-Placebo Slope Difference, Estimate: Total UPDRS slopes; for 1 mg Early-Delayed Start Slope Difference, Estimate / 2 mg Early-Delayed Start Slope Difference, Estimate: Active Phase weeks 48-72, non-inferiority margin 0.15; for 1 mg Early-Delayed Start Slope Difference, Estimate / 1 mg-Placebo Slope Difference, Estimate / 1 mg-Placebo Week 36-12, Estimate / 1 mg Early-Delayed Start at week 72, Estimate: rasagiline 1 mg; for 2 mg Early-Delayed Start Slope Difference, Estimate / 2 mg-Placebo Slope Difference, Estimate / 2 mg-Placebo Week 36-12, Estimate / 2 mg Early-Delayed Start at week 72, Estimate: rasagiline 2 mg; for 1 mg-Placebo Slope Difference, Estimate / 2 mg-Placebo Slope Difference, Estimate: PC phase weeks 12-36, model that assumes linearity; for 1 mg-Placebo Week 36-12, Estimate / 2 mg-Placebo Week 36-12, Estimate: Total UPDRS, PC phase, alternative categorical model that compares week 36 to week 12; for outcome of the primary analysis (three hierarchal endpoints): both doses, post-hoc; for 1 mg Early-Delayed Start at week 72, Estimate / 2 mg Early-Delayed Start at week 72, Estimate: change from baseline in Total UPDRS, end of the Active Phase
Method: 1 mg/day rasagiline during Phase I and Phase II; • Group 2. 2 mg/day rasagiline during Phase I and Phase II; • Group 3. placebo during Phase I followed by 1 mg/day rasagiline during Phase II; and • Group 4. placebo during Phase I followed by 2 mg/day rasagiline during Phase II.
Thus, ‘early-start’ patients receive 72 weeks of treatment with rasagiline (1 or 2 mg once daily) and ‘delayed-start’ patients receive 36 weeks of placebo followed by 36 weeks of rasagiline (1 or 2 mg once daily). […] If subjects in either treatment group required additional anti-parkinsonian medication during the placebo-controlled stage of the trial, they could proceed directly to Phase II. Once in Phase II, no additional anti-PD therapy is permitted. If the patient requires additional medication in this stage they are discontinued from the study.
1 mg/day rasagiline during Phase I and Phase II (1 mg early start) • 2. 2 mg/day rasagiline during Phase I and Phase II (2 mg early start) • 3. placebo during Phase I followed by 1 mg/day rasagiline during Phase II (1 mg delayed start) • 4. placebo during Phase I followed by 2 mg/day rasagiline during Phase II (2 mg delayed start)
If, at any stage during the placebo-controlled phase the investigator determines that a subject needs additional anti-PD therapy, the subject will proceed to Phase II of the study. The investigator, aided by a questionnaire, will give careful consideration to the issue of a subject's need for additional anti-PD therapy. Scheduled in-clinic visits will be conducted at baseline and at weeks 4, 12, 24 and 36. Therefore, altogether there will be 5 scheduled visits during this phase. Unscheduled visits may be conducted at any time to assess a subject's need for additional anti-PD therapy, for safety reasons or for any other reason.
Thus, subjects who receive 1 mg rasagiline during Phase I will continue to receive 1 mg during Phase II, subjects who receive 2 mg rasagiline during Phase I will continue to receive 2 mg during Phase II, and subjects who receive placebo during Phase I will receive either 1 mg or 2 mg rasagiline during Phase II. The study blind will be maintained. No additional anti-PD therapy will be permitted during this phase. This applies to both the subjects who enter Phase II after completing the full 36-week duration of Phase I and to subjects who are switched from Phase I to Phase II because of a need of additional anti-PD therapy. If, the investigator determines that a subject needs additional anti-PD therapy during Phase II, the subject will be prematurely withdrawn from the study. The investigator, aided by a questionnaire, will give careful consideration to the issue of a subject's need for additional anti-PD therapy. Scheduled in-clinic visits will be conducted every 6 weeks. Therefore, altogether there will be 6 visits during this phase—at weeks 42, 48, 54, 60, 66 and 72. Unscheduled visits may be conducted at any time to assess a subject's need for additional anti-PD therapy, for safety reasons or for any other reason.

[1] = rasagiline 1 mg/day delayed-start, Baseline UPDRS > 25.5 (Upper Quartile)
[2] = rasagiline 1 mg/day delayed-start, Baseline UPDRS ≦ 25.5 (Lower 3 Quartiles)
[3] = rasagiline 1 mg/day delayed-start, all subjects
[4] = rasagiline 1 mg/day delayed-start, all subjects, listed as Rasagiline
[5] = rasagiline 1 mg/day early-start minus delayed-start, Baseline UPDRS > 25.5 (Upper Quartile)
[6] = rasagiline 1 mg/day early-start minus delayed-start, Baseline UPDRS ≦ 25.5 (Lower 3 Quartiles)
[7] = rasagiline 1 mg/day early-start, Baseline UPDRS > 25.5 (Upper Quartile)
[8] = rasagiline 1 mg/day early-start, Baseline UPDRS ≦ 25.5 (Lower 3 Quartiles)
[9] = rasagiline 1 mg/day early-start, all subjects
[10] = rasagiline 1 mg/day early-start, all subjects, listed as Rasagiline

C#CCN[C@@H]1CCc2ccccc21 [rasagiline]
Disease modifying effect (1 mg treatment, according to FDA requirements as predefined in the statistical analysis plan): demonstrated
Disease modifying effect (2 mg treatment): not evident
symptomatic effect observed in TEMPO (ADAGIO placebo controlled (PC) phase, rasagiline 1 mg and 2 mg versus placebo): replicated
change in Total UPDRS score at week 72 (Early Stage PD patients, dose not stated): 2.8
rate of progression of PD (Early Stage PD patients, improved from 0.139, dose not stated): 0.066 score (change in Total UPDRS)/week
1 mg Early-Delayed Start Slope Difference, Estimate (ACTE): 0.000
1 mg Early-Delayed Start Slope Difference, Estimate (CO): −0.011
1 mg Early-Delayed Start Slope Difference, Estimate (PP): −0.011
2 mg Early-Delayed Start Slope Difference, Estimate (ACTE): 0.029
2 mg Early-Delayed Start Slope Difference, Estimate (CO): 0.021
2 mg Early-Delayed Start Slope Difference, Estimate (PP): 0.022
1 mg-Placebo Slope Difference, Estimate (CO data analysis set): −0.033
1 mg-Placebo Slope Difference, Estimate (ITT data analysis set): −0.046
1 mg-Placebo Slope Difference, Estimate (PP data analysis set): −0.037
2 mg-Placebo Slope Difference, Estimate (CO data analysis set): −0.061
2 mg-Placebo Slope Difference, Estimate (ITT data analysis set): −0.072
2 mg-Placebo Slope Difference, Estimate (PP data analysis set): −0.065
1 mg-Placebo Week 36-12, Estimate (CO): −0.799
1 mg-Placebo Week 36-12, Estimate (ITT): −1.043
1 mg-Placebo Week 36-12, Estimate (PP): −0.873
2 mg-Placebo Week 36-12, Estimate (CO): −1.463
2 mg-Placebo Week 36-12, Estimate (ITT): −1.668
2 mg-Placebo Week 36-12, Estimate (PP): −1.553
difference in change in Total UPDRS score vs delayed treatment, maintained (between Week 48 and Week 72, dose not stated): 1.7 score
outcome of the primary analysis (three hierarchal endpoints) (lower three quartiles of baseline UPDRS scores (≦25.5)): neither dose met all of the primary endpoints
outcome of the primary analysis (three hierarchal endpoints) (upper quartile of baseline total UPDRS (>25.5)): met all 3 primary endpoints
1 mg Early-Delayed Start at week 72, Estimate (ACTE data analysis set): −1.680
1 mg Early-Delayed Start at week 72, Estimate (CO data analysis set): −1.592
1 mg Early-Delayed Start at week 72, Estimate (PP data analysis set): −1.594
2 mg Early-Delayed Start at week 72, Estimate (ACTE data analysis set): 0.356
2 mg Early-Delayed Start at week 72, Estimate (CO data analysis set): −0.088
2 mg Early-Delayed Start at week 72, Estimate (PP data analysis set): −0.024
reduction in Total UPDRS score at week 72 (corresponding to change of 2.8 at week 72): 62.2%
duration for which benefits of early treatment are sustained (early treatment vs later initiation): at least 18 months
Primary 2: estimated change in total UPDRS from baseline to week 72 [1]: 5.41
Primary 3: rate of change in UPDRS, weeks 48-72 [1]: 0.095 UPDRS units/wk
Primary 2: estimated change in total UPDRS from baseline to week 72 [2]: 4.03
Primary 3: rate if change in UPDRS, weeks 48-72 [2]: 0.08 UPDRS units/wk
Primary 2: estimated change in total UPDRS from baseline to week 72 [3]: 4.50
Primary 3: rate of change in UPDRS, weeks 48-72 [3]: 0.085 UPDRS units/wk
Primary 2: estimated change in total UPDRS from baseline to week 72 [4]: 4.52±0.56
Primary 3: rate of change in UPDRS, weeks 48-72 [4]: 0.085±0.02 UPDRS units/wk
Primary 2: estimated change in total UPDRS from baseline to week 72, early-start-delayed-start [5]: −3.40±1.66 and −3.40
Primary 3: rate of change in UPDRS, weeks 48-72, early-start-delayed-start [5]: −0.02 UPDRS units/wk
Primary 2: estimated change in total UPDRS from baseline to week 72, early-start-delayed-start [6]: −1.08
Primary 3: rate if change in UPDRS, weeks 48-72, early-start-delayed-start [6]: 0.004 UPDRS units/wk
Primary 2: estimated change in total UPDRS from baseline to week 72, early-start-delayed-start (rasagiline 1 mg/day early-start minus delayed-start, all subjects): −1.68±0.75 and −1.68
Primary 3: rate of change in UPDRS, weeks 48-72, early-start-delayed-start (rasagiline 1 mg/day early-start minus delayed-start, all subjects, non-inferiority margin 0.15): 0.00 UPDRS units/wk
Primary 2: estimated change in total UPDRS from baseline to week 72 [7]: 2.01
Primary 3: rate of change in UPDRS, weeks 48-72 [7]: 0.075 UPDRS units/wk
Primary 2: estimated change in total UPDRS from baseline to week 72 [8]: 2.94
Primary 3: rate if change in UPDRS, weeks 48-72 [8]: 0.09 UPDRS units/wk
Primary 2: estimated change in total UPDRS from baseline to week 72 [9]: 2.82
Primary 3: rate of change in UPDRS, weeks 48-72 [9]: 0.085 UPDRS units/wk
Primary 2: estimated change in total UPDRS from baseline to week 72 [10]: 2.82±0.53
Primary 3: rate of change in UPDRS, weeks 48-72 [10]: 0.085±0.02 UPDRS units/wk
